Results published in patent US6410545B1, “Lipid lowering quinazoline dietary supplement composition” (Parker Hughes Institute, priority 1998, dated 2002).

Assays:
C57B⅙ mice = test: In vivo hepatic VLDL-TG production using Triton WR1339 in C57B⅙ mice
Protocol: C57B⅙ and apoE-deficient mice were treated with intraperitoneal injections of 50 μl vehicle or 40 mg/kg WHI-P164 in 50 μl vehicle for 7 consecutive days, followed by a 36 hour fast to shut down intestinal chylomicron synthesis. […] Blood samples were taken at 0 and 4 hours after Triton WR1339 injection and plasma TG levels were measured enzymatically using a commercially available enzymatic kit (Sigma Chemical Co.). Alternatively, food was returned to the mice after a 36 hour fast and blood samples were collected at 0, 1, 3, 6, and 9 hours after returning the food. Accumulation of chylomicron-TG was determined as accumulation of plasma TG.
To determine if WHI-P164 prevent hepatic TG accumulation by relieving 9 block in VLDL-TG secretion or by inhibiting upstream TG synthesis, in vivo hepatic VLDL-TG synthesis was analyzed. Synthesis was determined by following the accumulation of VLDL-TG after shutting down VLDL catabolism with Triton WR1339 injection and intestinal chylomicron synthesis with a 36 hours fast.
C57B⅙ and apoE-deficient mice were treated with intra peritoneal injections of vehicle or 40 mg/kg WHI-P164 (in 50 μl vehicle) for 7 consecutive days, followed by a 36 hour fast to shut down intestinal chylomicron synthesis. […] Blood samples (50 μl) were taken at 0 and 4 hours after Triton WR1339 injection and plasma TG was measured enzymatically using a commercially available enzymatic kit (Sigma Chemical Co.), as previously reported (Kuipers, supra).

apo e−/− mice [1] = test: Serum lipoprotein profile (VLDL-C, HDL-C) by FPLC in apo e−/− mice; assay type: in vivo; conditions: for HDL-C / VLDL-C: apo e−/− mice, one week
Protocol: (§1) Three- to four-week old apolipoprotein E deficient (apo E^−/−) mice were the progeny of breeding pairs of apo E knockout (apo EKO) mice obtained from Jackson Labs. (Bar Harbor, Me., USA). Mice were fed either regular rodent chow (5% fat and 0% cholesterol) (Teklad-LM 485, Harlan Teklad, Madison, Wis., USA), the Paigen's cocoa butter diet, or the Western diet (21.22% fat and 0.2% cholesterol) (Harlan Teklad, Madison, Wis., USA) for two weeks prior to treatment.
(§2) Animals were treated with test compounds by intraperitoneal injection daily for 7 days. A range of doses was administered. Control animals received vehicle alone. The effect of quinazoline derivatives on total cholesterol, LDL, HDL, liver enzymes, and glucose was analyzed. The mice tissues were also examined histologically.
Serum cholesterol profiles were examined by Fast Protein Liquid Chromatography (FPLC) using 100 μl of serum per run. The serum was passed over two Superose™ 6 HR 10/30 connected in tandem equilibrated in phosphate buffered saline (PBS), using the FPLC system from Pharmacia Biotech (Piscataway, N.J., USA) consisting of a controller LCC-501 plus connected to a UV detector (UV-MII), two P500 pumps, and a Frac-100 fraction collector. The FPLC was remotely controlled and operated by the FPLC director program operated on an IBM computer. The system was operated at a flow rate of 0.5 ml/minute and fractions were collected at 0.5 ml/fraction. Cholesterol concentration of each fraction was determined as described above and plotted against the fraction numbers to obtain the serum cholesterol profile.
To determine the serum concentrations of LDL/β-VLDL and HDL, the sums of the LDL/β-VLDL peak (fractions 29-35) and the HDL peak (fractions 53-63) were divided by 0.1. To obtain the IC50 and the minimum β-VLDL and HDL concentrations, the concentrations of β-VLDL and HDL were plotted against the dosage. Best fitted exponential decay curves were obtained using the equation: Concentration of HDL or LDL/β-VLDL=Aexp(−BX)+E, where A+E equals the concentration of HDL or LDL/β-VLDL at the dosage of 0 μg/day and E equals the mathematical minimum concentration of HDL or β-VLDL, and B equals 0.69/IC50. Best fitted curves were obtained using the Graphpad Inplot program, Graphpad Software, San Diego, Calif., USA.
(§3) On regular rodent chow, the serum total cholesterol level of apo e^−/− mice was 836±57 mg/dL (n=47). After one week therapy with 8 mg/kg/day WHI-P164 (n=12), the mean serum total cholesterol level was reduced to 551±29 mg/dL (p=0.02).
(§4) When challenged with a cholesterol-rich diet, these animals developed frank hypercholesterolemia due to delayed clearance of intestinal chylomicrons which shuttle the dietary cholesterol from the intestine to the liver. In the present study, all of the 46 ApoE-deficient mice that were fed Western diet (14) became severely hypercholesterolemic with a mean serum total cholesterol level of 1491±59 mg/dL. One week WHI-P164 therapy reduced the mean serum total cholesterol level of hypercholesterolemic apo e^−/− mice to 1194±84 mg/dL (p=O.006) at a dose level of 8 mg/kg/day (n=19) and to 876±57 mg/dL (p<0.0001) at a dose level of 40 mg/kg/day (n=17) (Table 3).

apo e−/− mice [2] = test: Serum total cholesterol in apolipoprotein E deficient mice; assay type: in vivo; conditions: for Mean serum total cholesterol: apo e−/− mice, 8 mg/kg/day, one week
Protocol: as §1, §2
Serum total cholesterol was measured enzymatically using the cholesterol kit from Sigma Chemical Co. (St. Louis, Mo., USA). For liver tissue lipid measurements, lipids were extracted from homogenized hepatic tissues using the method of Bligh and Dyer (Bligh, et al., Can. J. Biochem. Phys. 1959, 37:911-917). One gram of liver tissue was homogenized in 1 ml of distilled water and extracted with 4 ml of chloroform/methanol (1:1, v/v). The chloroform phase containing the lipids was evaporated under a stream of nitrogen, the lipids dissolved in 100 μL of isopropanol, and subjected to cholesterol determination as described above. Triglyceride (TG) contents were determined using the TG kit from Sigma Chemical Co.
as §3, §4

[3] = hypercholesterolemic apo e−/− mice

## COc1cc2ncnc(C(=O)c3cccc(Br)c3)c2cc1OC [WHI-P164, 4-(3′-bromobenzoyl)-6,7-dimethoxyquinazoline]
C57B⅙ mice; C57B⅙ mice, 40 mg/kg, versus vehicle
  Accumulation of VLDL-TG after Triton WR1339 treatment: significantly less accumulation of VLDL-TG than vehicle-treated control mice
C57B⅙ mice; apo e+/+ (C57B1/6), 40 mg/kg i.p. 7 days, 36 hour fast
  Triglyceride, Pre-Triton WR 1339: 124 ± 12 (n = 5) mg/dL
C57B⅙ mice; apo e+/+ (C57B1/6), 40 mg/kg i.p. 7 days, 36 hour fast, 4 hours after Triton WR1339
  Triglyceride, Post-Triton WR 1339: 1031 ± 95 (n = 8) mg/dL
Apo e−/− mice [1]; Western diet, 40 mg/kg/day
  HDL-C: 90 ± 4 mg/dL
  VLDL-C: 587 ± 4 mg/dL
Apo e−/− mice [1]; rodent chow, 8 mg/kg/day
  HDL-C: 50 ± 10 mg/dL
  VLDL-C: 190 ± 13 mg/dL
Apo e−/− mice [1]; [3]
  Reduction of β-VLDL/LDL-cholesterol levels: 63%
Apo e−/− mice [2]; apo e−/− (C57B1/6) mice, Western diet two weeks, then drug 1 week at 40 mg/kg/day, 40 mg/kg/day
  Serum total cholesterol: 876 ± 57 mg/dL
Apo e−/− mice [2]; Western diet
  Mean serum total cholesterol: 1194 ± 84 mg/dL
Apo e−/− mice [2]; regular rodent chow
  Mean serum total cholesterol: 551 ± 29 mg/dL
Apo e−/− mice [2]; [3]
  Reduction of total cholesterol levels: 41%
